Data: patent publication EP1016405A2, “Arylating medicaments” (Radopath Pharmaceuticals International Limited, priority 1993, dated 1994)
Values joined by “and” are separate entries in the source; they are usually repeats but may differ in a detail not shown here. Equal entries are not always repeated. Where two headings read alike, the source gives them in different places.

What was measured:
[1] = test system: M5076 reticulum cell sarcoma; experiment: Anti-tumour activity against M5076 reticulum cell sarcoma; format: in vivo, murine; conditions: statement in words
Protocol: (§1) The purpose of these studies was to evaluate the anti-tumour properties of a group of compounds with structural similarities that may act as arylating agents. Their in vivo anti-tumour responses were assessed against two ascitic tumours, the MAC15A murine colon adenocarcinoma and the P388 murine leukaemia and various solid tumour models.
(§2) The MAC15A ascites tumour cells were transplanted into male NMR1 mice by ip inoculation at a cell density of 1 X 10^5 cells in 200µl buffer (Table 1). The P388 were transplanted ip into male BDF1 mice at cell density of 1 X 10^6 cells in 200µl buffer (Table 2). The solid tumour models included the MAC13 and MAC16 murine colon adenocarcinomas, the B16 F1 murine melanoma and the M5076 reticulum cell sarcoma.
(§3) Treatment commenced 3 days after ip transplant or, in the case of solid tumours such as MAC13 and MAC16, treatment commenced when average tumour volumes reached 40mm^3.
(§4) The animals were sacrificed after 12 days or when tumours ulcerated, tumour volume exceeded 1000mm^3 or loss of body weight exceeded 50%.
(§5) Except where otherwise stated, the compounds used were dissolved in DMSO and diluted in sterile distilled water, at appropriate concentrations before administration in a solvent volume of 200 µl. Anti-tumour responses were obtained by comparing the median survival times or tumour growth inhibition against solvent controls.

[2] = Anti-tumour activity against MAC13, tumour weight inhibition; format: in vivo, murine; conditions: mouse, in vivo; Table 6; ip, per day; corn oil; read-out: maximum tolerated dose
Protocol: as §1, §2, §3, §4, §5

[3] = test system: MAC13 murine colon adenocarcinoma; experiment: as above; format: in vivo; conditions: 12 days after im transplant, corn oil
Protocol: as §1, §2, §3, §4, §5

[4] = in vitro; conditions: CC50 (Toxicity)
[5] = test system: HIV-1IIIB; experiment: Acute infection assay against HIV-1IIIB; format: cell-based, human immunodeficiency virus
[6] = in vivo; conditions: mouse, ip
[7] = test system: uninfected cells
[8] = test system: MAC15A (murine adenocarcinoma colon); experiment: Anti-tumour activity against MAC15A ascites tumour, survival T/C%; format: in vivo, mice; conditions: ip
[9] = test system: P388 (murine leukaemia); experiment: Anti-tumour activity against P388 ascites tumour, survival T/C%; format: in vivo, mice; conditions: Table 2, mean, day 1 to 5
Protocol: as §1, §2, §3
The animals were located in both cases into groups of 5 to 8 animals.
as §4
Except where otherwise stated, the compounds used were dissolved in DMSO and diluted in sterile distilled water, at appropriate concentrations before administration in a solvent volume of 200 µl. […]
T/C% is determined as follows:- […]

[10] = test system: HIV-1RF; experiment: Acute Infection Assay, HIV core antigen ELISA in C8166 cells; format: cell-based, human immunodeficiency virus
[11] = Anti-tumour activity in vitro; conditions: statement in words
[12] = test system: B16 murine melanoma; experiment: Anti-tumour activity against B16 melanoma in C57/black mice, tumour weight inhibition; format: in vivo, female C57/black mice; conditions: statement in words, refers to Table 8
[13] = Anti-tumour activity against MAC16, tumour weight inhibition; format: in vivo, murine; conditions: mouse, in vivo; Table 7; ip, per day; corn oil; read-out: maximum tolerated dose
Protocol: as §1, §2, §3, §4, §5

[14] = test system: MAC16, murine colon adenocarcinoma; experiment: as above; format: in vivo; conditions: for % Tumour Weight Inhibition: day 11 after beginning of treatment, sc transplant, corn oil
Protocol: as §1, §2, §3, §4, §5

[15] = test system: B16F1-murine melanoma; conditions: mouse, in vivo

## NC(=O)c1cc([N+](=O)[O-])c(Cl)c([N+](=O)[O-])c1Cl [Compound C2, 2,4-dichloro-3,5-dinitrobenzamide]
[1]
  antitumour activity: without antitumour activity
[2]
  MTD at 12 days: 2.5 mg/kg
[3]; 1.25 mg/kg ip, days 1,2,3,4,5,6,7,8,9
  % Tumour Weight Inhibition: 17%
[3]; 2.5 mg/kg ip, days 1,2,3,4,5,6,7,8,9
  % Tumour Weight Inhibition: 51%
[4]
  CC50: 70 µM
[5]
  SI (Selectivity Index): 35
[5]; Human immunodeficiency virus 1, IIIB, read-out: IC50 (Antiviral)
  IC50: 2000 nM
[6]
  MTD: 2.5 mg/kg

## O=[N+]([O-])c1cc(S(=O)(=O)O)cc([N+](=O)[O-])c1Cl [Compound S1, 4-chloro-3,5-dinitrobenzenesulfonic acid]
[7]
  CD50: 80 µM
[4]
  CC50: 100 µM
[8]; mouse, in vivo
  T/C%: 414%
[9]; 50 mg kg^-1 per day IP
  TC%: 259%
[9]; 100mg kg^-1 per day IP
  TC%: 203%
[10]
  SI (Selectivity Index): 5 and 3
  TI: 28.6
[10]; read-out: IC50
  IC50: 3 µM
[10]; read-out: IC50 (Antiviral)
  IC50: 20 µM and 19 µM

## O=C(O)c1cc([N+](=O)[O-])ccc1Cl [2-chloro-5-nitrobenzoic acid]
[11]
  anti-tumour activity in vitro: could not be supported in vitro
[12]
  anti-tumour activity in vivo: shows consideration anti-tumour activity in vivo

## O=C(O)c1cc([N+](=O)[O-])c(Cl)c([N+](=O)[O-])c1Cl [Compound C1, 2,4-dichloro-3,5-dinitrobenzoic acid]
[7]
  CC50: 60 µM
[13]
  MTD at 12 days: 75 mg/kg
[14]; 50 mg/kg ip, days 1,2,4,5,8
  % Tumour Weight Inhibition: 91%
[14]; 75 mg/kg ip, days 1,2,5,8
  % Tumour Weight Inhibition: 88%
[14]; statement in words, MAC16 murine colon adenocarcinoma
  inhibition of tumour growth: effectively inhibited growth
[2]
  MTD at 12 days: 75 mg/kg
[3]; 50 mg/kg ip, days 1,2,3,4,5,6,7,8,9
  % Tumour Weight Inhibition: 39%
[3]; 75 mg/kg ip, days 1,4,5
  % Tumour Weight Inhibition: 45%
[4]
  CC50: 56 µM
[8]; Mus musculus, MAC15A, read-out: T/C%
  response vs control in vivo at 100 mg/kg: 243%
[15]
  inhibition of tumour growth: effectively inhibited growth
[6]
  MTD: 75 mg/kg
